These results are taken from paper PMC5078989, “Targeted inhibition of the COP9 signalosome for treatment of cancer” (Nature Communications, 2016).

SMILES strings stand for the structures.

In experiment [1] the test system is panel of cancer cell lines. As to the kind of experiment: Cell viability (CellTiter-Glo) dose-response across cancer cell line panel.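 Also: after 72 h compound incubation with CellTiter-Glo ATP readout.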 The format is cell-based, human. Particulars: SNB-19. The source says:
Next, we explored the effect of CSN5 inhibition on the viability of cancer cells. To obtain a comprehensive picture, we generated dose–response curves with a CSN5 inhibitor across more than 500 cancer cell lines in a previously described standardized setting[47] (Supplementary Data 1).
A standardized CellTiter-Glo Assay (Promega #G7570) based on the quantification of ATP was applied according to the manufacturer's protocol to measure the amount of viable cells in culture. In brief, cells were seeded into 384-well plates at optimal density for each cell line. After 4 h, compounds were added at different concentrations in growth medium and incubated for another 72 h in a humidifying chamber at 37 °C and 5% CO2. […] EC50 values were calculated from the plot of percentage of inhibition versus inhibitor concentration using the nonlinear regression analysis software Origin 7.5SR6 (OriginLab Corp.).

The next experiment has as its system HCT116 cells. Nature of the experiment: Immunoblotting of cullins, CRL components and substrates in HCT116 cells. The following applies: qualitative western blot analysis. The format is cell-based, human. On the procedure:
Figure 2 CSN5 inhibition results in the inactivation of a subset of CRLs and the stabilization of their substrates. Effect on CRL components and substrates after treatment of HCT116 cells with either 1 μM MLN4924 or 1 μM CSN5i-3. (a) Immunoblottings for Cul1 and its CRL components Rbx and Skp1; (b) for cullins Cul2, Cul3 and Cul4A; (c) for F-box protein Skp2 and the SCF^Skp2 substrates p21 and p27; (d) for F-box proteins Fbxo22 and Fbxo30; (e) for F-box protein βTrCP and the SCF^βTrCP substrates Wee1 and pIκBα; (f) for the adaptor KEAP1 and the Cul3^KEAP1 substrate Nrf2; (g) for F-box proteins Fbxw7 and Fbxo3.
Cells were maintained in a humidified incubator at 37 °C and 5% CO2. HCT116 cells (ATCC #CCL-247) were grown in McCoy's 5A medium (GIBCO #16600–082) supplemented with 10% fetal bovine serum (FBS), TE-1 (RIKEN BioResource Center, #RCB1894), NCI-H2030 (ATCC #CRL-591), SU-DHL-1 (DMSZ #ACC 356), NOMO-1 (HSRRB #IFO50474) and NCIH196 cells (ATCC, #CRL-5823) in RPMI-1640 medium (GIBCO#61870–010) supplemented with 10% FBS, 10 mM HEPES, 1 mM sodium pyruvate and THP-1 cells (ATCC #TIB-202) with additional 0.05 mM 2-mercaptoethanol. DMS273 cells (ECACC #950628) were cultured in Waymouth's MB 752/1 medium (GIBCO#11220–035) supplemented with 10% FBS. All cells were negatively tested for mycoplasma contamination either by the vendor or in house. For treatment with compounds, sub-confluent cells were either treated with inhibitors at the indicated concentrations or mock treated with an equivalent amount of DMSO (final content 0.1%). If not stated otherwise, cells were harvested after incubation for 16 h and subjected to SDS–PAGE and western blotting. The RNA interference experiment was performed with CSN5 stealth siRNA (#HSS116986) and stealth negative control siRNA (#12935–400) (Invitrogen), which were transfected at 10 nM into HCT116 cells using HiperFect (Qiagen) according to the manufacturer's protocols. Seventy-two hours after transfection, cells were harvested and subjected to SDS–PAGE and western blotting (see Supplementary Fig. 7 for all western blottings performed).
For further analysis, cell lysates were prepared by direct lysis with 2 × Sample buffer (65.8 mM Tris-HCl, pH 6.8, 2.1% SDS, 26.3% glycerol, 0.01% bromophenol blue and 20 mM DTT). Protein lysates from tumour powder were prepared in RIPA buffer (50 mM Tris-HCl pH 8.0, 150 mM NaCl, 1% Triton X-100, 2 mM EDTA, 0.5% sodium deoxycholate and 0.1% SDS) supplemented with 10 mM N-ethylmaleimide, protease inhibitor and phosphatase inhibitor cocktails (Roche Diagnostics). Cells from longer compound incubations were also lysed in RIPA buffer, which allows the protein concentration to be determined by BCA Protein Assay Kit (Pierce). Proteins were separated by SDS–PAGE using 4–20% Tris-Glycine Gels (Invitrogen) and subsequently transferred to polyvinylidene difluoride membranes using a Trans-Blot Turbo System (BioRad). […] Horseradish peroxidase-conjugated secondary antibodies (1:3,000) were purchased from Promega AG and bound antibody was detected by enhanced chemiluminescence (Pierce).

Take `CC(C)C[C@H](NC(=O)[C@H](Cc1ccccc1)NC(=O)c1cnccn1)B(O)O` [Botezomib]: a half-maximal response in experiment [1] (EC50) required 9.53 nM.

Regarding `N#Cc1ccc([C@H]2[C@@H](O)CCCc3cncn32)c(-c2ccccc2)c1` (relative stereo) [CSN5i-1a, Cis-6-(6-Hydroxy-6,7,8,9-tetrahydro-5H-imidazo[1,5-a]azepin-5-yl)-[1,1′-biphenyl]-3-carbonitrile], the “cullin-1 (Cul1) deneddylation in HCT116 cells” value with HCT116 cells is “weakly inhibited”.

Usually EC50 stands for the concentration needed to bring the measured effect to its halfway point. Read a high EC50 as a need for much substance.
